Measurements published in patent publication US10669242B2 (priority 2016, dated 2020).

Molecular target: T1, recombinant glucosyltransferase domain of C. difficile Toxin B/TcdB (Clostridioides difficile, UniProt P18177)
T1 construct: 6-His (C); purchased R&D Systems 6246-GT
Assay: biochemical

T1 sequence (P18177 1-543): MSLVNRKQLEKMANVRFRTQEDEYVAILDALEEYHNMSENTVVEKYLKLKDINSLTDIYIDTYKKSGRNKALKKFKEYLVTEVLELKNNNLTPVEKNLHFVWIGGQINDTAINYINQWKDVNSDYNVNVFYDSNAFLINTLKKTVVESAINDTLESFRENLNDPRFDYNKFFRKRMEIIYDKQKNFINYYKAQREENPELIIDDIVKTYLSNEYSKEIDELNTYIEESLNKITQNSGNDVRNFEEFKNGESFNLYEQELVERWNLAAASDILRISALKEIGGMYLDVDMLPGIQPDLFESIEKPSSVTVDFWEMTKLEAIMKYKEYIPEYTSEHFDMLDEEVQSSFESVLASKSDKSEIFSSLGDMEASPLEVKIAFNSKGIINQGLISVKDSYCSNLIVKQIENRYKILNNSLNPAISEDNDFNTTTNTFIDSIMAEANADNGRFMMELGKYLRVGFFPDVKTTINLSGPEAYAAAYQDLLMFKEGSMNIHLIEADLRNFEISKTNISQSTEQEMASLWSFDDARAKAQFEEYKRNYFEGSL

Row | SMILES | IC50
1 | O=C(O)c1ccc(CN2C(=O)c3ccc(Cl)cc3NC(=O)[C@H]2Cc2ccccn2)cc1-c1cccnc1 [Example 8m, (R)-4-((8-chloro-2,5-dioxo-3-(pyridin-2-ylmethyl)-2,3-dihydro-1H-benzo[e][1,4]diazepin-4(5H)-yl)methyl)-2-(pyridin-3-yl)benzoic acid] | 1000 to 10000 nM
2 | Cc1cnc(NC(=O)[C@H]2CC[C@H](CN3C(=O)c4ccc(Cl)cc4NC(=O)[C@H]3Cc3ccccn3)CC2)nc1 [Example 5ad, (1R,4r)-4-(((R)-8-chloro-2,5-dioxo-3-(pyridin-2-ylmethyl)-2,3-dihydro-1H-benzo[e][1,4]diazepin-4(5H)-yl)methyl)-N-(5-methylpyrimidin-2-yl)cyclohexanecarboxamide] | < 100 nM
3 | O=C(CN1CCOCC1)Nc1cc(CN2C(=O)c3ccc(Cl)cc3NC(=O)[C@H]2Cc2ccccn2)ccc1C(=O)O [Example 22h] | 1000 to 10000 nM
4 | O=C(NS(=O)(=O)c1ccc(Cl)cc1)c1ccc(CN2C(=O)c3ccc(Cl)cc3NC(=O)[C@H]2Cc2cccnc2)cc1 [Example 15c, (R)-4-((8-chloro-2,5-dioxo-3-(pyridin-3-ylmethyl)-2,3-dihydro-1H-benzo[e][1,4]diazepin-4(5H)-yl)methyl)-N-((4-chlorophenyl)sulfonyl)benzamide] | 1000 to 10000 nM
5 | C[C@@H]1C(=O)Nc2cc(Cl)ccc2C(=O)N1Cc1ccc(C(=O)Nc2cc3ccccc3cn2)cc1 [Example 4bb, (R)-4-((8-chloro-3-methyl-2,5-dioxo-2,3-dihydro-1H-benzo[e][1,4]diazepin-4(5H)-yl)methyl)-N-(isoquinolin-3-yl)benzamide] | 100 to 999 nM
6 | O=C(O)c1ccc(CN2C(=O)c3ccc([N+](=O)[O-])cc3NC(=O)[C@H]2Cc2cccnc2)cc1 [Example 2i] | 1000 to 10000 nM
7 | O=C(O)c1ccc(CN2C(=O)c3ccc(Cl)cc3NC(=O)[C@H]2Cc2ccc(Cl)cc2)cc1 [Example 3e] | 10000 to 35000 nM
8 | O=C1Nc2cc(Cl)ccc2C(=O)N(Cc2ccc(S(=O)(=O)Nc3ccccn3)cc2)[C@@H]1Cc1cccnc1 [Example 36a, (R)-4-((8-Chloro-2,5-dioxo-3-(pyridin-3-ylmethyl)-2,3-dihydro-1H-benzo[e][1,4]diazepin-4(5H)-yl)methyl)-N-(pyridin-2-yl)benzenesulfonamide] | 1000 to 10000 nM
9 | O=C(Nc1ccccn1)c1ccc(CN2C(=O)c3ccc(Br)cc3NC(=O)[C@H]2Cc2cccnc2)cc1 [Example 4bd, (R)-4-((8-bromo-2,5-dioxo-3-(pyridin-3-ylmethyl)-2,3-dihydro-1H-benzo[e][1,4]diazepin-4(5H)-yl)methyl)-N-(pyridin-2-yl)benzamide] | < 100 nM
10 | O=C1Nc2cc(Cl)ccc2C(=O)N(Cc2ccc(-n3cnc4cccnc4c3=O)cc2)[C@@H]1Cc1ccccn1 [Example 46a, (R)-8-Chloro-4-(4-(4-oxopyrido[3,2-c]pyrimidin-3(4H)-yl)benzyl)-3-(pyridin-2-ylmethyl)-3,4-dihydro-1H-benzo[e][1,4]diazepine-2,5-dione] | < 100 nM
11 | Cc1ccc(NC(=O)c2ccc(CN3C(=O)c4ccc(Cl)cc4NC(=O)[C@H]3CCN3CCCCC3)cc2)nc1 [Example 10b, (R)-4-((8-chloro-2,5-dioxo-3-(2-(piperidin-1-yl)ethyl)-2,3-dihydro-1H-benzo[e][1,4]diazepin-4(5H)-yl)methyl)-N-(5-methylpyridin-2-yl)benzamide] | 10000 to 35000 nM
12 | COc1ccc(NC(=O)c2ccc(CN3C(=O)c4ccc(Cl)cc4NC(=O)[C@H]3Cc3ccccn3)s2)nc1 [Example 4br, (R)-5-((8-chloro-2,5-dioxo-3-(pyridin-2-ylmethyl)-2,3-dihydro-1H-benzo[e][1,4]diazepin-4(5H)-yl)methyl)-N-(5-methoxypyridin-2-yl)thiophene-2-carboxamide] | 100 to 999 nM
13 | COc1ccc(NC(=O)c2ccc(S(=O)(=O)N3Cc4ccc(Cl)cc4NC(=O)[C@H]3Cc3ccccn3)cc2)nc1 [Example 19f, (R)-4-((8-chloro-2-oxo-3-(pyridin-2-ylmethyl)-2,3-dihydro-1H-benzo[e][1,4]diazepin-4(5H)-yl)sulfonyl)-N-(5-methoxypyridin-2-yl)benzamide] | 100 to 999 nM
14 | O=C(O)c1ccc(CN2C(=O)c3ccc(Cl)cc3NC(=O)[C@H]2Cc2ccccc2F)cc1 [Example 3j] | 10000 to 35000 nM
15 | Cc1cccnc1C(=O)c1ccc(CN2C(=O)c3ccc(Cl)cc3NC(=O)[C@H]2Cc2ccccn2)cc1F [Example 11i, (R)-8-chloro-4-(3-fluoro-4-(3-methylpicolinoyl)benzyl)-3-(pyridin-2-ylmethyl)-3,4-dihydro-1H-benzo[e][1,4]diazepine-2,5-dione] | 1000 to 10000 nM
16 | C[C@@H]1C(=O)Nc2cc(Cl)ccc2C(=O)N1Cc1ccc(C(=O)O)c(Br)c1 [Example 1n] | 10000 to 35000 nM
17 | Cc1ccc(C(=O)N[C@H]2CC[C@H](CN3C(=O)c4ccc(Cl)cc4NC(=O)[C@H]3Cc3ccccn3)CC2)nc1 [Example 25a, N-((1R,4r)-4-(((R)-8-Chloro-2,5-dioxo-3-(pyridin-2-ylmethyl)-2,3-dihydro-1H-benzo[e][1,4]diazepin-4(5H)-yl)methyl)cyclohexyl)-5-methylpicolinamide] | 100 to 999 nM
18 | O=C1Nc2cc(Cl)ccc2C(=O)N(Cc2ccc(C(O)c3ccccn3)cc2)[C@@H]1Cc1ccccn1 (stereo partly drawn) [Example 51a, (3R)-8-Chloro-4-(4-(hydroxy(pyridin-2-yl)methyl)benzyl)-3-(pyridin-2-ylmethyl)-3,4-dihydro-1H-benzo[e][1,4]diazepine-2,5-dione] | 1000 to 10000 nM

Row | SMILES | IC50
19 | O=C(Nc1ccccn1)c1ccc(CN2C(=O)c3ccc(Cl)cc3NC(=O)[C@H]2Cc2ccccn2)cc1F [Example 6b, (R)-4-((8-chloro-2,5-dioxo-3-(pyridin-2-ylmethyl)-2,3-dihydro-1H-benzo[e][1,4]diazepin-4(5H)-yl)methyl)-2-fluoro-N-(pyridin-2-yl)benzamide] | < 100 nM
20 | O=C(Nc1ccc(CN2C(=O)c3ccc(Cl)cc3NC(=O)[C@H]2Cc2ccccn2)cc1)c1nccs1 [Example 27e] | 100 to 999 nM
21 | Cc1ccc(NC(=O)c2ccc(CN3C(=O)c4ccc(Cl)cc4NC(=O)[C@H]3Cc3ccccn3)cc2F)nc1 [Example 6d, (R)-4-((8-chloro-2,5-dioxo-3-(pyridin-2-ylmethyl)-2,3-dihydro-1H-benzo[e][1,4]diazepin-4(5H)-yl)methyl)-2-fluoro-N-(5-methylpyridin-2-yl)benzamide] | < 100 nM
22 | Cc1cc(C(=O)Nc2ccc(CN3C(=O)c4ccc(Cl)cc4NC(=O)[C@H]3Cc3ccccn3)cc2)no1 [Example 27g] | 1000 to 10000 nM
23 | O=C(Nc1cnccn1)c1ccc(CN2C(=O)c3ccc(Cl)cc3NC(=O)[C@H]2Cc2cccnc2)cc1 [Example 5c, (R)-4-((8-chloro-2,5-dioxo-3-(pyridin-3-ylmethyl)-2,3-dihydro-1H-benzo[e][1,4]diazepin-4(5H)-yl)methyl)-N-(pyrazin-2-yl)benzamide] | < 100 nM
24 | Cc1ccc(NC(=O)c2ccc(S(=O)(=O)N3Cc4ccc(Cl)cc4NC(=O)[C@H]3Cc3ccccn3)cc2)nc1 [Example 19a, (R)-4-((8-Chloro-2-oxo-3-(pyridin-2-ylmethyl)-2,3-dihydro-1H-benzo[e][1,4]diazepin-4(5H)-yl)sulfonyl)-N-(5-methylpyridin-2-yl)benzamide] | 100 to 999 nM
25 | Cc1ccc(NC(=O)c2ccc(CN3C(=O)c4ccc(Cl)cc4NC(=O)[C@H]3Cc3ccsc3)cc2)nc1 [Example 35b] | < 100 nM
26 | Cc1ccc(NC(=O)c2ccc(CN3C(=O)c4ccc(Cl)cc4NC(=O)[C@H]3CCO)cc2)nc1 [Example 9a, (R)-4-((8-Chloro-3-(2-hydroxyethyl)-2,5-dioxo-2,3-dihydro-1H-benzo[e][1,4]diazepin-4(5H)-yl)methyl)-N-(5-methylpyridin-2-yl)benzamide] | 100 to 999 nM
27 | COc1ccc2c(c1)NC(=O)[C@@H](Cc1cccnc1)N(Cc1ccc(C(=O)Nc3ccccn3)cc1)C2=O [Example 4p, (R)-4-((8-methoxy-2,5-dioxo-3-(pyridin-3-ylmethyl)-2,3-dihydro-1H-benzo[e][1,4]diazepin-4(5H)-yl)methyl)-N-(pyridin-2-yl)benzamide] | < 100 nM
28 | O=C1Nc2cc(Cl)ccc2C(=O)N(C[C@H]2CC[C@H](C(=O)Nc3ccccn3)CC2)[C@@H]1Cc1cccnc1 [Example 35l] | 100 to 999 nM
29 | CC(C)c1ccc(NC(=O)c2ccc(CN3C(=O)c4ccc(Cl)cc4NC(=O)[C@H]3Cc3cccnc3)cc2)nc1 [Example 4at, (R)-4-((8-chloro-2,5-dioxo-3-(pyridin-3-ylmethyl)-2,3-dihydro-1H-benzo[e][1,4]diazepin-4(5H)-yl)methyl)-N-(5-isopropylpyridin-2-yl)benzamide] | < 100 nM
30 | COc1cnc(NC(=O)c2ccc(S(=O)(=O)N3Cc4ccc(Cl)cc4NC(=O)[C@H]3Cc3ccccn3)cc2)nc1 [Example 19h, (R)-4-((8-chloro-2-oxo-3-(pyridin-2-ylmethyl)-2,3-dihydro-1H-benzo[e][1,4]diazepin-4(5H)-yl)sulfonyl)-N-(5-methoxypyrimidin-2-yl)benzamide] | < 100 nM
31 | O=C(O)c1ccc(CN2C(=O)c3ccc(F)cc3NC(=O)[C@H]2Cc2cccnc2)cc1 [Example 1b] | 1000 to 10000 nM
32 | O=C(O)c1ccc(CN2C(=O)c3ccc(Cl)cc3NC(=O)[C@@H]2Cc2ccc(O)cc2)cc1 [Example 2c] | 10000 to 35000 nM
33 | Cc1ccc(-c2cc(CN3C(=O)c4ccc(Cl)cc4NC(=O)[C@H]3Cc3ccccn3)ccc2C(=O)O)cc1 [Example 8g, (R)-5-((8-chloro-2,5-dioxo-3-(pyridin-2-ylmethyl)-2,3-dihydro-1H-benzo[e][1,4]diazepin-4(5H)-yl)methyl)-4′-methyl-[1,1′-biphenyl]-2-carboxylic acid] | 100 to 999 nM
34 | COc1ccc(NC(=O)c2ccc(CN3C(=O)c4ccc(Cl)cc4NC(=O)[C@H]3Cc3ccccn3)cc2OC)nc1 [Example 4cn, (R)-4-((8-chloro-2,5-dioxo-3-(pyridin-2-ylmethyl)-2,3-dihydro-1H-benzo[e][1,4]diazepin-4(5H)-yl)methyl)-2-methoxy-N-(5-methoxypyridin-2-yl)benzamide] | < 100 nM
35 | Cc1cccc(C[C@@H]2C(=O)Nc3cc(Cl)ccc3C(=O)N2Cc2ccc(C(=O)Nc3ccccn3)cc2)c1 [Example 4aj, (R)-4-((8-chloro-3-(3-methylbenzyl)-2,5-dioxo-2,3-dihydro-1H-benzo[e][1,4]diazepin-4(5H)-yl)methyl)-N-(pyridin-2-yl)benzamide] | 100 to 999 nM
